Laboratory results published in article PMC11480511 (Scientific Reports, 2024).
In brackets after ≈: the same amount, converted by molar mass. Several values for one entry are separate records, joined by “and”; a condition that tells them apart may be missing. Equal values may be shown once. Read-outs that look alike come from different tables or passages of the source.

What was measured:
[1] = tested on: P. aeruginosa ATCC 27,853; assay: Antibacterial screening, agar cup diffusion method; assay type: cell-based; settings: Pseudomonas aeruginosa, ATCC27; Gram –ve strain; read-out: Minimum inhibitory concentrations (MIC, µM) P. aeruginosa ATCC 27,853
UO-31 = assay: NCI single-dose growth inhibition screen; assay type: cell-based, human; settings: single dose 10^−5 M; for inhibition at 10 µM: Homo sapiens, UO-31, Renal Cancer UO-31
UACC-257 = assay: NCI single-dose growth inhibition screen; assay type: cell-based; settings: Homo sapiens; Melanoma UACC-257; single dose 10^−5 M
PC-3 = assay: NCI single-dose growth inhibition screen; assay type: cell-based; settings: Homo sapiens; Prostate Cancer PC-3; single dose 10^−5 M
BT-549 = assay: NCI single-dose growth inhibition screen; assay type: cell-based; settings: Homo sapiens; Breast Cancer BT-549; single dose 10^−5 M
IGROV1 = assay: NCI single-dose growth inhibition screen; assay type: cell-based; settings: Homo sapiens, IGROV-1; Ovarian Cancer IGROV1; single dose 10^−5 M
ACHN = assay: NCI single-dose growth inhibition screen; assay type: cell-based; settings: Homo sapiens; Renal Cancer ACHN; single dose 10^−5 M
HS 578T = assay: NCI single-dose growth inhibition screen; assay type: cell-based; settings: Homo sapiens; Breast Cancer HS 578T; single dose 10^−5 M
MOLT-4 = assay: NCI single-dose growth inhibition screen; assay type: cell-based; settings: Homo sapiens; Leukemia MOLT-4; single dose 10^−5 M
MALME-3 M = assay: NCI single-dose growth inhibition screen; assay type: cell-based; settings: Homo sapiens; Melanoma MALME-3 M; single dose 10^−5 M
CAKI-1 = assay: NCI single-dose growth inhibition screen; assay type: cell-based; settings: Homo sapiens; Renal Cancer CAKI-1; single dose 10^−5 M
A549/ATCC = assay: NCI single-dose growth inhibition screen; assay type: cell-based; settings: Homo sapiens; Non-Small Cell Lung Cancer A549/ATCC; single dose 10^−5 M
E. coli ATCC 25,922 = assay: Antibacterial screening, agar cup diffusion method; assay type: cell-based; settings: read-out: Minimum inhibitory concentrations (MIC, µM) E. coli ATCC 25,922
T-47D = assay: NCI single-dose growth inhibition screen; assay type: cell-based; settings: Homo sapiens, T47D; Breast Cancer T-47D; single dose 10^−5 M
NCI-H460 = assay: NCI single-dose growth inhibition screen; assay type: cell-based; settings: Homo sapiens; Non-Small Cell Lung Cancer NCI-H460; single dose 10^−5 M
SR = assay: NCI single-dose growth inhibition screen; assay type: cell-based; settings: Homo sapiens; Leukemia SR; single dose 10^−5 M
NCI-H522 = assay: NCI single-dose growth inhibition screen; assay type: cell-based; settings: Homo sapiens; Non-Small Cell Lung Cancer NCI-H522; single dose 10^−5 M
MDA-MB231 = assay: NCI single-dose growth inhibition screen; assay type: cell-based; settings: Homo sapiens, MDA-MB-231; Breast Cancer MDA-MB231; single dose 10^−5 M
RXF 393 = assay: NCI single-dose growth inhibition screen; assay type: cell-based; settings: Homo sapiens; Renal Cancer RXF 393; single dose 10^−5 M
LOX IMVI = assay: NCI single-dose growth inhibition screen; assay type: cell-based, human; settings: Melanoma LOX IMVI, single dose 10^−5 M; for inhibition at 10 µM: Homo sapiens, LOX IMVI
NCI-H322M = assay: NCI single-dose growth inhibition screen; assay type: cell-based; settings: Homo sapiens; Non-Small Cell Lung Cancer NCI-H322M; single dose 10^−5 M
SF-539 = assay: NCI single-dose growth inhibition screen; assay type: cell-based; settings: Homo sapiens; CNS Cancer SF-539; single dose 10^−5 M
MDA-MB-435 = assay: NCI single-dose growth inhibition screen; assay type: cell-based; settings: Homo sapiens; Melanoma MDA-MB-435; single dose 10^−5 M
SK-MEL-5 = assay: NCI single-dose growth inhibition screen; assay type: cell-based, human; settings: single dose 10^−5 M; for inhibition at 10 µM: Homo sapiens, SK-MEL-5, Melanoma SK-MEL-5
human melanoma LOX IMVI = assay: cells; settings: for IC50: read-out: In vitro cytotoxicity (IC50) LOX IMVI (µM ± SEM)
SF-268 = assay: NCI single-dose growth inhibition screen; assay type: cell-based; settings: Homo sapiens; CNS Cancer SF-268; single dose 10^−5 M
DU-145 = assay: NCI single-dose growth inhibition screen; assay type: cell-based; settings: Homo sapiens; Prostate Cancer DU-145; single dose 10^−5 M
[2] = tested on: A498 renal cancer cell line; assay: cells; settings: Homo sapiens; for viability at 0.4 µM / viability at 1.6 µM / viability at 25 µM / viability at 100 µM: A498; for IC50: A498, read-out: In vitro cytotoxicity (IC50) A498 cell line (µM ± SEM)
M14 = assay: NCI single-dose growth inhibition screen; assay type: cell-based; settings: Homo sapiens; Melanoma M14; single dose 10^−5 M
Method: Following the guidelines established by the drug evaluation department of the National Cancer Institute (NCI), USA, all target compounds 3a–l were examined against 60 cancer cell lines at a single concentration of 10 µM.
The anti-cancer potential of the tested compounds was evaluated at the National cancer institute (NCI), USA, against 9 panels of 60 various cell lines derived from nine human tumours available usually at NCI library. The procedures for the screening were described in details in NCI website (dttp://www.dtp.nci.nih.gov.) and were done according to NCI protocols[60] . The anticancer screening was carried out at single dose of 10^−5 M, NCI, Bethesda, USA. The results obtained as growth inhibition (%).

OVCAR-8 = assay: NCI single-dose growth inhibition screen; assay type: cell-based; settings: Homo sapiens; Ovarian Cancer OVCAR-8; single dose 10^−5 M
RPMI-8226 = assay: NCI single-dose growth inhibition screen; assay type: cell-based; settings: Homo sapiens; Leukemia RPMI-8226; single dose 10^−5 M
EKVX = assay: NCI single-dose growth inhibition screen; assay type: cell-based; settings: Homo sapiens; Non-Small Cell Lung Cancer EKVX; single dose 10^−5 M
[3] = Escherichia coli, ATCC25, Gram –ve strain

Which results are given for `O=C(O)c1cn(C2CC2)c2cc(N3CCN(C(=O)CCCN4C(=O)SC(=Cc5cccc6ccccc56)C4=O)CC3)c(F)cc2c1=O` [3j, 1-cyclopropyl-6-fluoro-7-[4-[4-[5-(1-naphthylmethylene)-2,4-dioxo-thiazolidin-3-yl]butanoyl]piperazin-1-yl]-4-oxo-quinoline-3-carboxylic acid]?
MIC [1]: > 20 µM; inhibition at 10 µM (UO-31): 48.1%; inhibition at 10 µM (UACC-257): 19.1%; inhibition at 10 µM (PC-3): < 0%; inhibition at 10 µM (BT-549): 20.5%; inhibition at 10 µM (IGROV1): 25.9%; inhibition at 10 µM (ACHN): 11.5%; inhibition at 10 µM (HS 578T): 30.2%; inhibition at 10 µM (MOLT-4): 17.5%; inhibition at 10 µM (MALME-3 M): 13.1%; inhibition at 10 µM (CAKI-1): 18%; inhibition at 10 µM (A549/ATCC): 9.3%; MIC (E. coli ATCC 25,922; [3]): 1.94 to 2.6 µM (≈ 1.27 to 1.7 µg/mL); MIC (E. coli ATCC 25,922; Gram –ve strain): 2.60 µM (≈ 1.7 µg/mL); inhibition at 10 µM (T-47D): 7.5%; inhibition at 10 µM (NCI-H460): 3.9%; inhibition at 10 µM (SR): 14.1%; inhibition at 10 µM (NCI-H522): 18.5%; inhibition at 10 µM (MDA-MB231): 25.2%; inhibition at 10 µM (RXF 393): 11.2%; melting point: 219 °C; inhibition at 10 µM (LOX IMVI): 38.5%; Growth Inhibition (%) (LOX IMVI): 38.5%; inhibition at 10 µM (NCI-H322M): 26.6%; inhibition at 10 µM (SF-539): 9.9%; inhibition at 10 µM (MDA-MB-435): 12.8%; inhibition at 10 µM (SK-MEL-5): 46.1%; Growth Inhibition (%) (SK-MEL-5; Melanoma SK-MEL-5): 46.1%; viability at 0.4 µM (human melanoma LOX IMVI): 86.5%; viability at 1.6 µM (human melanoma LOX IMVI): 79.4%; viability at 25 µM (human melanoma LOX IMVI): 61.5%; viability at 100 µM (human melanoma LOX IMVI): 48.5%; IC50 (human melanoma LOX IMVI): 110 ± 6.23 µM; inhibition at 10 µM (SF-268): 29.1%; inhibition at 10 µM (DU-145): 21.9%; viability at 0.4 µM [2]: 84.7%; viability at 1.6 µM [2]: 71.9%; viability at 25 µM [2]: 51.4%; viability at 100 µM [2]: 42.5%; IC50 [2]: 33.9 ± 1.91 µM; inhibition at 10 µM (M14): 16.7%; inhibition at 10 µM (OVCAR-8): 9%; inhibition at 10 µM (RPMI-8226): 6.1%; inhibition at 10 µM (EKVX): 9.1%

For `O=C(O)c1cn(C2CC2)c2cc(N3CCN(C(=O)CCCN4C(=O)SC(=Cc5ccccc5)C4=O)CC3)c(F)cc2c1=O` [3a, 7-[4-[4-[5-benzylidene-2,4-dioxo-thiazolidin-3-yl]butanoyl]piperazin-1-yl]-1-cyclopropyl-6-fluoro-4-oxo-quinoline-3-carboxylic acid], which MIC [1] is on record?
The MIC was over 20 µM.

What about the inhibition at 10 µM (UO-31) of the same compound?
The inhibition at 10 µM was 53.2%.

And the “Growth Inhibition (%)” value (UO-31; Renal Cancer UO-31)?
The value was 36.0%.

And the inhibition at 10 µM (UACC-257)?
Its inhibition at 10 µM is 21.1%.

And the inhibition at 10 µM (PC-3)?
The inhibition at 10 µM was under 0%.

What about the inhibition at 10 µM (BT-549) of the same compound?
Its inhibition at 10 µM is 7.3%.

And the inhibition at 10 µM (IGROV1)?
The inhibition at 10 µM was 8.5%.

And the inhibition at 10 µM (ACHN)?
Its inhibition at 10 µM is 14.5%.

What about the inhibition at 10 µM (HS 578T) of the same compound?
Its inhibition at 10 µM is 8.8%.

And the inhibition at 10 µM (MOLT-4)?
Its inhibition at 10 µM is 12.6%.

What about the inhibition at 10 µM (MALME-3 M) of the same compound?
Its inhibition at 10 µM is 30.4%.

And the inhibition at 10 µM (CAKI-1)?
The inhibition at 10 µM was 10.9%.

And the inhibition at 10 µM (A549/ATCC)?
Its inhibition at 10 µM is 14.2%.

What about the MIC (E. coli ATCC 25,922; [3]) of the same compound?
Its MIC is 0.2 µM (≈ 0.121 µg/mL).

What about the inhibition at 10 µM (T-47D) of the same compound?
The inhibition at 10 µM was 8.1%.

What about the inhibition at 10 µM (NCI-H460) of the same compound?
The inhibition at 10 µM was 3.7%.

And the inhibition at 10 µM (SR)?
The inhibition at 10 µM was 29.9%.

What about the inhibition at 10 µM (NCI-H522) of the same compound?
Its inhibition at 10 µM is 27.4%.

What about the inhibition at 10 µM (MDA-MB231) of the same compound?
Its inhibition at 10 µM is 25.2%.

What about the inhibition at 10 µM (RXF 393) of the same compound?
The inhibition at 10 µM was under 0%.

And the melting point?
The melting point was 238 °C.

What about the inhibition at 10 µM (LOX IMVI) of the same compound?
The inhibition at 10 µM was 41.4%.

And the “Growth Inhibition (%)” value (LOX IMVI)?
Its value is 53.25% and 53.3%.

And the inhibition at 10 µM (NCI-H322M)?
The inhibition at 10 µM was 9.4%.

And the inhibition at 10 µM (SF-539)?
Its inhibition at 10 µM is 8.9%.

What about the inhibition at 10 µM (MDA-MB-435) of the same compound?
Its inhibition at 10 µM is 7.8%.

And the inhibition at 10 µM (SK-MEL-5)?
The inhibition at 10 µM was 24.6%.

And the viability at 0.4 µM (human melanoma LOX IMVI)?
Its viability at 0.4 µM is 77.9%.

And the viability at 1.6 µM (human melanoma LOX IMVI)?
Its viability at 1.6 µM is 69.2%.

What about the viability at 25 µM (human melanoma LOX IMVI) of the same compound?
The viability at 25 µM was 48.8%.

What about the viability at 100 µM (human melanoma LOX IMVI) of the same compound?
The viability at 100 µM was 40.4%.

And the IC50 (human melanoma LOX IMVI)?
The IC50 was 26.7 ± 1.5 µM.

And the inhibition at 10 µM (SF-268)?
The inhibition at 10 µM was 12.4%.

What about the inhibition at 10 µM (DU-145) of the same compound?
The inhibition at 10 µM was under 0%.

And the viability at 0.4 µM [2]?
The viability at 0.4 µM was 103%.

And the viability at 1.6 µM [2]?
The viability at 1.6 µM was 92.7%.

What about the viability at 25 µM [2] of the same compound?
Its viability at 25 µM is 69.3%.

What about the viability at 100 µM [2] of the same compound?
The viability at 100 µM was 56.1%.

What about the IC50 [2] of the same compound?
Its IC50 is over 150 µM.

And the inhibition at 10 µM (M14)?
Its inhibition at 10 µM is 8.2%.

And the inhibition at 10 µM (OVCAR-8)?
Its inhibition at 10 µM is 15.4%.

What about the inhibition at 10 µM (RPMI-8226) of the same compound?
The inhibition at 10 µM was 11.4%.

What about the inhibition at 10 µM (EKVX) of the same compound?
The inhibition at 10 µM was under 0%.
